Tests used:
[1] = target: T1, G-protein coupled receptor 6 (Homo sapiens, UniProt P46095); test: Modulation activity at GPR6 receptor (unknown origin) expressed in CHO-K1 cells assessed as inhibition of constitutive cAMP activity incubated for 45 mins in presence of 300 uM IBMX by Perkin Elmer Lance HTRF Ultrac-AMP assay; assay type: functional, cell-based
[2] = target: T1, G-protein coupled receptor 6; test: Modulation activity at GPR6 receptor (unknown origin) expressed in CHO-K1 cells assessed as inhibition of constitutive cAMP activity incubated for 45 mins by Perkin Elmer Lance HTRF Ultrac-AMP assay; assay type: functional, cell-based

T1 sequence (P46095 whole entry): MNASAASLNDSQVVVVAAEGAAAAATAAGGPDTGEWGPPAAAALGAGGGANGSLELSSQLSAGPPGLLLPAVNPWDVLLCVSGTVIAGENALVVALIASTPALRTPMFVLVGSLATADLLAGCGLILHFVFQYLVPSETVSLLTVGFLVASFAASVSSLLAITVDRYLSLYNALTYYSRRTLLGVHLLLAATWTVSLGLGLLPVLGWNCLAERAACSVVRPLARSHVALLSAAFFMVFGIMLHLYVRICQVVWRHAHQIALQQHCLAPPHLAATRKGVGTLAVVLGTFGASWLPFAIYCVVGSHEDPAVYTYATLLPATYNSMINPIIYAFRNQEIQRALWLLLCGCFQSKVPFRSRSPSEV

| IC50 ([1]; cho-k1) [nM] | SMILES | also measured |
| --- | --- | --- |
| 39.2 | CCC(=O)N1CCc2nc(N3CCC(Oc4ccc(F)cc4F)CC3)c(N[C@H]3CCOC3)nc2C1 | – |
| – | CC1Cc2nc(NCC(F)F)c(N3CCC(Oc4ccc(F)cc4F)CC3)nc2CN1C (centres undefined) | IC50 [2]: 23.2 nM |
| 163 | CS(=O)(=O)N1CCc2nc(NCC(F)F)c(N3CCC(Oc4ccc(F)cc4F)CC3)nc2C1 | – |
| – | CC(C)Nc1nc2c(nc1N1CCC(Oc3ccc(F)cc3F)CC1)CCN(C(=O)N1CCOCC1)C2 | IC50 [2]: 62.6 nM |
| – | COCC(=O)N1CCc2nc(NC(C)C)c(N3CCC(Oc4ccc(F)cc4F)CC3)nc2C1C (centres undefined) | IC50 [2]: 91 nM |
| – | CC(C)Nc1nc2c(nc1N1CCC(Oc3ccc(F)cc3F)CC1)CN(C(=O)N(C)C)CC2 | IC50 [2]: 13.8 nM |
| 27.9 | CC(C)Nc1nc2c(nc1N1CCN(Cc3ccc(F)cc3F)CC1)CCN(S(C)(=O)=O)C2 | – |
| – | CC(=O)N1CCc2nc(NC(C)C)c(N3CCC(C(F)c4ccc(F)cc4F)CC3)nc2C1 (centres undefined) | IC50 [2]: 8.5 nM |
| 23.6 | CC(C)Nc1nc2c(nc1N1CCC([C@@H](F)c3ccc(F)cc3F)CC1)CCN(C=O)C2 | – |
| 250 | CC(=O)N1CCc2nc(NC(C)C)c(N3CCC(S(=O)(=O)c4cccc(F)c4)CC3)nc2C1 | – |
| 29 | CC(C)Nc1nc2c(nc1N1CCN(Cc3ccc(F)cc3F)CC1)CCN(C(=O)C(C)C)C2 | – |
| – | COCC(=O)N1CCc2nc(NC(C)C)c(N3CCC(Oc4ccc(F)cc4F)CC3)nc2C1 | IC50 [2]: 17.3 nM |
| 110 | CC(C)Nc1nc2c(nc1N1CCC(Oc3ccc(F)cc3F)CC1)CCN(C(=O)N(C)C)C2C (centres undefined) | – |
| – | O=C(C(F)F)N1CCc2nc(N3CCC(Oc4ccc(F)cc4F)CC3)c(NCC(F)F)nc2C1 | IC50 [2]: 78.8 nM |
| 79.5 | COCC(=O)N1CCc2nc(NCC(F)F)c(N3CCC(Oc4ccc(F)cc4F)CC3)nc2C1 | – |
| 200 | COc1ccc(S(=O)(=O)C2CCN(c3nc4c(nc3NC(C)C)CCN(C(C)=O)C4)CC2)c(F)c1 | – |
| 35.9 | CC(=O)N1CCc2nc(N3CCC(Oc4ccc(F)cc4F)CC3)c(NC3CC(F)(F)C3)nc2C1 | – |
| – | CC1Cc2nc(NCC(F)F)c(N3CCC(Oc4ccc(F)cc4F)CC3)nc2CN1S(C)(=O)=O (centres undefined) | IC50 [2]: 10.4 nM |
| 220 | CC(=O)O[C@H]1C[C@@H](Nc2nc3c(nc2N2CCN(Cc4ccc(F)cc4F)CC2)CCN(C(C)=O)C3)C1 | – |
| – | CO[C@@H](C)C(=O)N1CCc2nc(N3CCC(Oc4ccc(F)cc4F)CC3)c(NCC(F)F)nc2C1 | IC50 [2]: 111 nM |
| – | COC[C@@H](C)Nc1nc2c(nc1N1CCC(Oc3ccc(F)cc3F)CC1)CCN(C(C)=O)C2 | IC50 [1]: > 1000 nM |
| 61.5 | CC(=O)N1CCc2nc(N3CCC(Oc4ccc(F)cc4F)CC3)c(N[C@H]3C[C@@H](O)C3)nc2C1 | – |
| – | CC(C)Nc1nc2c(nc1N1CCC(Oc3ccc(F)cc3F)CC1)C(C)N(C(=O)C1CC1)CC2 (centres undefined) | IC50 [2]: 259 nM |

| IC50 ([1]; cho-k1) [nM] | SMILES | also measured |
| --- | --- | --- |
| 340 | CC(C)Nc1nc2c(nc1N1CCC(Oc3ccc(F)cc3F)CC1)CCN(C(=O)C1CC1)C2 | – |
| – | CN1CCc2nc(NC3CC3)c(N3CCC(C(F)c4ccc(F)cc4F)CC3)nc2C1 (centres undefined) | IC50 [2]: 9.4 nM |
| 27.6 | CCC(=O)N1CCc2nc(N3CCC(Oc4ccc(F)cc4F)CC3)c(NC(C)C)nc2C1 | – |
| 93.5 | CC1c2nc(N3CCC(Oc4ccc(F)cc4F)CC3)c(NCC(F)F)nc2CCN1C(=O)N(C)C (centres undefined) | – |
| – | COc1ccc(OC2CCN(c3nc4c(nc3NC3CCC3)CCN(C(C)=O)C4)CC2)c(F)c1 | IC50 [2]: 12 nM |
| – | CC(=O)N1Cc2nc(N3CCC(Oc4ccc(F)cc4F)CC3)c(NCC(F)F)nc2CC1C (centres undefined) | IC50 [2]: 24.9 nM |
| – | COc1ccc(OC2CCN(c3nc4c(nc3NC3CCC3)CN(C(=O)N(C)C)CC4)CC2)c(F)c1 | IC50 [2]: 32.5 nM |
| 188 | CC(=O)N1CCc2nc(NC(C)C)c(N3CCC(S(=O)(=O)c4ccc(F)cc4)CC3)nc2C1 | – |
| 319 | CC[C@@H](C)Nc1nc2c(nc1N1CCC(Oc3ccc(F)cc3F)CC1)CCN(C(C)=O)C2 | – |
| 247 | CC(=O)N1CCc2nc(NC(C)C)c(N3CCC(S(=O)(=O)c4ccccc4F)CC3)nc2C1 | – |
| – | CC(C)Nc1nc2c(nc1N1CCC(C(F)c3ccc(F)cc3F)CC1)CCN(C(=O)N(C)C)C2 (centres undefined) | IC50 [2]: 19.7 nM |
| – | CC(C)Nc1nc2c(nc1N1CCC(Oc3ccc(C#N)cc3F)CC1)CN(C(=O)C1CC1)CC2 | IC50 [2]: 122 nM |
| 95 | CC(C)Nc1nc2c(nc1N1CCC(Oc3ccc(F)cc3F)CC1)CCN(C(=O)C(F)F)C2C (centres undefined) | – |
| – | CC(C)Nc1nc2c(nc1N1CCC(Oc3ccc(F)cc3F)CC1)CCN(S(=O)(=O)C(C)C)C2 | IC50 [2]: 149 nM |
| – | CC(=O)N1CCc2nc(NCC(F)F)c(N3CCC(Oc4ccc(F)cc4F)CC3)nc2C1 | IC50 [2]: 11.5 nM |
| 63.2 | CC(=O)N1CCc2nc(N3CCN(Cc4ccc(F)cc4F)CC3)c(N[C@@H]3CCOC3)nc2C1 | – |
| 116 | CC(C)Nc1nc2c(nc1N1CCC(Oc3ccc(F)cc3F)CC1)C(C)N(C(=O)C(F)F)CC2 (centres undefined) | – |
| 132 | COC(=O)N1CCc2nc(NC(C)C)c(N3CCC(Oc4ccc(F)cc4F)CC3)nc2C1 | – |
| – | CC1c2nc(NCC(F)F)c(N3CCC(Oc4ccc(F)cc4F)CC3)nc2CCN1C(=O)C1CC1 (centres undefined) | IC50 [2]: 85 nM |
| 122 | CC(=O)N1CCc2nc(N3CCN(Cc4ccc(F)cc4F)CC3)c(N[C@H]3C[C@@H](O)C3)nc2C1 | – |
| – | CC(C)Nc1nc2c(nc1N1CCC(Oc3ccc(F)cc3F)CC1)CCN(C(=O)c1ccno1)C2 | IC50 [2]: 38.7 nM |
| – | CO[C@@H](C)C(=O)N1CCc2nc(NCC(F)F)c(N3CCC(Oc4ccc(F)cc4F)CC3)nc2C1 | IC50 [2]: 8.3 nM |
| 73.2 | CC(=O)N1CCc2nc(N3CCC(Oc4ccc(F)cc4F)CC3)c(NC(C)C)nc2C1C (centres undefined) | – |

| IC50 ([1]; cho-k1) [nM] | SMILES | also measured |
| --- | --- | --- |
| 129 | CC(C)Nc1nc2c(nc1N1CCC(Oc3ccc(F)cc3F)CC1)CCN(C(=O)C(F)F)C2 | – |
| 211 | CC(C)Nc1nc2c(nc1N1CCC(Oc3ccc(F)cc3F)CC1)CN(C(=O)C1CC1)CC2 | – |
| 17.1 | CC(C)Nc1nc2c(nc1N1CCC(C(F)c3ccc(F)cc3F)CC1)CN(C)CC2 (centres undefined) | – |
| 97.8 | CC(=O)N1CCc2nc(N3CCN(Cc4ccc(F)cc4F)CC3)c(N[C@H]3CCOC3)nc2C1 | – |
| 49.7 | CC(=O)N1CCc2nc(N3CCC(Oc4ccc(F)cc4F)CC3)c(NCC(F)F)nc2C1 | – |
| 342 | COc1cccc(S(=O)(=O)C2CCN(c3nc4c(nc3NC(C)C)CCN(C(C)=O)C4)CC2)c1 | – |
| 37.8 | CC(=O)N1CCc2nc(N3CCC([C@@H](F)c4ccc(F)cc4F)CC3)c(NC(C)C)nc2C1 | – |
| 62.5 | COc1ccc(OC2CCN(c3nc4c(nc3NC(C)C)CCN(C(C)=O)C4)CC2)c(F)c1 | – |
| – | COC[C@H](C)Nc1nc2c(nc1N1CCC(Oc3ccc(F)cc3F)CC1)CCN(C(C)=O)C2 | IC50 [1]: 107 nM |
| 95.6 | CC(C)Nc1nc2c(nc1N1CCC(Oc3ccc(F)cc3F)CC1)CN(S(C)(=O)=O)CC2 | – |
| 27.4 | CC(=O)N1CCc2nc(N3CCC([C@H](F)c4ccc(F)cc4F)CC3)c(NC(C)C)nc2C1 | – |
| 71.5 | COCC(=O)N1CCc2nc(N3CCC(Oc4ccc(F)cc4F)CC3)c(NC(C)C)nc2C1 | – |
| 27 | CC(=O)N1CCc2nc(N3CCN(Cc4ccc(F)cc4F)CC3)c(NC(C)C)nc2C1 | – |
| 179 | CC(C)Nc1nc2c(nc1N1CCC(Oc3ccc(F)cc3F)CC1)C(C)N(C(=O)N(C)C)CC2 (centres undefined) | – |
| 59.5 | CC(C)Nc1nc2c(nc1N1CCC(Oc3ccc(F)cc3F)CC1)CN(C)CC2 | – |
| 74.8 | CC(C)Nc1nc2c(nc1N1CCC(Oc3ccc(F)cc3F)CC1)CCN(CCF)C2 | – |
| 130 | COC(=O)N1CCc2nc(N3CCC(Oc4ccc(F)cc4F)CC3)c(NC(C)C)nc2C1 | – |
| 74.1 | COc1ccc(OC2CCN(c3nc4c(nc3NC(C)C)CN(C(C)=O)CC4)CC2)c(F)c1 | – |
| 363 | CC(=O)N1CCc2nc(N3CCN(Cc4ccc(C#N)cc4F)CC3)c(NC(C)C)nc2C1 | – |
| 78.1 | CC(C)Nc1nc2c(nc1N1CCC(Oc3ccc(F)cc3F)CC1)CCN(C(=O)[C@@H]1CCCN1C)C2 | – |
| 604 | CC(=O)O[C@H]1C[C@H](Nc2nc3c(nc2N2CCC(Oc4ccc(F)cc4F)CC2)CCN(C(C)=O)C3)C1 | – |
| 61.8 | CC(C)Nc1nc2c(nc1N1CCC(Oc3ccc(F)cc3F)CC1)CCN(S(C)(=O)=O)C2 | – |
| 11.4 | CC(C)Nc1nc2c(nc1N1CCC([C@H](F)c3ccc(F)cc3F)CC1)CCN(C=O)C2 | – |

| IC50 ([1]; cho-k1) [nM] | SMILES | also measured |
| --- | --- | --- |
| 43.7 | CC(=O)N1CCc2nc(N3CCN(Cc4ccc(F)cc4F)CC3)c(NC3CCC3)nc2C1 | – |
| 212 | CC1c2nc(NCC(F)F)c(N3CCC(Oc4ccc(F)cc4F)CC3)nc2CCN1C(=O)C(F)F (centres undefined) | – |
| 30.3 | CC(C)Nc1nc2c(nc1N1CCC(C(F)c3ccc(F)cc3F)CC1)CCN(C)C2 (centres undefined) | – |
| 55 | CC(=O)N1CCc2nc(N3CCC(Oc4ccc(F)cc4F)CC3)c(NC3CCC3)nc2C1 | – |
| 30.9 | CCC(=O)N1CCc2nc(N3CCN(Cc4ccc(F)cc4F)CC3)c(NC(C)C)nc2C1 | – |
| 90.1 | CC(C)Nc1nc2c(nc1N1CCC(Oc3ccc(F)cc3F)CC1)CCN(C)C2 | – |
| 59.3 | CC(C)Nc1nc2c(nc1N1CCC(Oc3ccc(F)cc3F)CC1)CCN(S(C)(=O)=O)C2C (centres undefined) | – |
| 200 | CC(C)Nc1nc2c(nc1N1CCC(Oc3ccc(F)cc3F)CC1)CN(CC(F)F)CC2 | – |
| 78 | CC(=O)N1CCc2nc(N3CCC(Oc4ccc(F)cc4F)CC3)c(N[C@H]3C[C@H](O)C3)nc2C1 | – |
| 193 | CC1c2nc(N3CCC(Oc4ccc(F)cc4F)CC3)c(NCC(F)F)nc2CCN1C(=O)C(F)F (centres undefined) | – |
| 43.2 | CC(C)Nc1nc2c(nc1N1CCC(Oc3ccc(F)cc3F)CC1)CN(C=O)CC2 | – |
| 62 | CC[C@H](C)Nc1nc2c(nc1N1CCC(Oc3ccc(F)cc3F)CC1)CCN(C(C)=O)C2 | – |
| – | [2H]C([2H])([2H])C(=O)N1CCc2nc(N3CCC(Oc4ccc(F)cc4F)CC3)c(NC(C)C)nc2C1 | IC50 [1]: 33.7 nM |
| 186 | CC(=O)N1CCc2nc(N3CCN(Cc4ccc(F)cc4F)CC3)c(N[C@H]3C[C@H](F)C3)nc2C1 | – |
| 49.3 | CS(=O)(=O)N1CCc2nc(N3CCC(Oc4ccc(F)cc4F)CC3)c(NC3CCC3)nc2C1 | – |
| 140 | COc1ccc(OC2CCN(c3nc4c(nc3NC(C)C)CN(C)CC4)CC2)c(F)c1 | – |
| 114 | CC(=O)O[C@H]1C[C@@H](Nc2nc3c(nc2N2CCC(Oc4ccc(F)cc4F)CC2)CCN(C(C)=O)C3)C1 | – |
| 111 | O=C(C(F)F)N1CCc2nc(NCC(F)F)c(N3CCC(Oc4ccc(F)cc4F)CC3)nc2C1 | – |
| 69.2 | CC(C)Nc1nc2c(nc1N1CCC(Oc3ccc(F)cc3F)CC1)CN(CCF)CC2 | – |
| 59.1 | CCC(=O)N1CCc2nc(N3CCN(Cc4ccc(F)cc4F)CC3)c(N[C@H]3CCOC3)nc2C1 | – |

Reference: ChEMBL document CHEMBL4419121, “Tetrahydropyridopyrazines modulators of gpr6” (2018)
